Assay results taken from patent US6881732B2, “Neuroprotection and cardioprotection afforded by chelators with high affinity and specificity for cations of first transition series elements” (Chelator LLC, priority 2002, dated 2005).

Columns and labels:
[1] = tested on: Fenton Reactions (iron catalyzed Haber-Weiss pathways); assay: iron-catalyzed free radical generation, superoxide-driven Fenton reaction; format: biochemical; conditions: chelator as Fe(III) complex
Experimental: Employing published methods, as described in “Quantitative Effects of Iron Chelators on Hydroxyl Radical Production by the Superoxide-Driven Fenton Reaction,” J. B. Smith, J. C. Cusumano, C. F. Babbs, Free Rad. Res. Comms. 1990, Vol. 8, No. 2, 101-106, the ability of Fe(III) complexed to N,N′,N″-tri(dihydroxy-phosphoryl methyl)-1,4,7-triazacyclononane to support Fenton reactions was evaluated.

anesthetized rabbit = assay: rabbit myocardial infarction model (30 min LCAO, reperfusion ~24 hours); format: in vivo; conditions: for cardioprotection (volume of infarcted myocardium vs. controls): administered beginning after 15 minutes of LCAO
Experimental: Cardioprotection by the test compound in ischemia-reperfusion injury was evaluated in a rabbit myocardial infarction model employing 30 minutes of reversible ligature occlusion of the left anterior descending coronary artery (LCAO) followed by reperfusion for ˜24 hours prior to sacrifice.

unanesthetized rabbit = assay: ventricular overdrive pacing (VOP) induced ischemia in unanesthetized rabbit; format: in vivo; conditions: for cardioprotection with regard to cardiac performance parameters: 10 min prior to VOP
Experimental: In the in vivo unanesthetized rabbit VOP-induced myocardial ischemia model, intravenous doses of 0.032 mmole/kg and 0.096 mmole/kg of the test compound were cardioprotective with regard to cardiac performance parameters when administered 10 min prior to VOP. […] The test compound had no affect on any cardiac performance parameters in these experiments prior to VOP-induced ischemia.

Sprague Dawley rats = assay: subacute toxicity, repeated intravenous doses in rats; format: in vivo, rat
From the text: Ten male Sprague Dawley rats 29 days old and weighing between 73.4 and 87.8 grams at the beginning of the experiment were randomized, employing the block stratificaton method, into two groups consisting of five rats each. On each of days 1, 2, 3, 6, 7, 8, 9, 10, 13 and 14 of the experiment one set of rats received an intravenous dose of N,N′,N″-tri(dihydroxyphosphoryl methyl)-1,4,7-triazacyclononane (Example 1C in U.S. Pat. No. 5,236,695) equal to 0.05 millimoles per kg of initial body weight (experimental group) while the other group received an equivalent volume of normal saline solution. The weights of the animals were recorded three times per week and the animals were sacrificed on the 28th day, major organs removed and weighed and tissues removed for microscopic examination.

[2] = tested on: ex vivo working rat heart; assay: ex vivo working rat heart model of global ischemia
rats = assay: rat stroke model, transient occlusion of the middle cerebral artery (TMCAO); format: in vivo; conditions: for Infarct Volumes: 48 hours after surgery; for Infarct Volumes / Motor Score: 1 Hour / Motor Score: 24 Hours / Motor Score: 48 Hours: mean ± SD
[3] = acute in vivo toxicity, single intravenous dose in mice; conditions: mouse, in vivo, iv
Experimental: (§1) This example illustrates the low in vivo toxicity of a representative example of the chelators of this invention upon administration to mice.
(§2) This in vivo LD50 toxicity dose results in an instantaneous in vivo concentration which is orders of magnitude greater than the dose of this agent which inhibits mammalian cell replication in vitro (0.009 mM/L).

mice = assay: as above; conditions: 3.0 mM/kg single intravenous dose; sodium salt
Experimental: as §1, §2

[4] = tested on: mammalian cell replication; assay: inhibition of mammalian cell replication in vitro; format: cell-based
Experimental: as §2

[5] = tested on: HFF (human foreskin fibroblasts); assay: toxicity toward nonproliferating mammalian cells in vitro; format: cell-based; conditions: 0.3 mM; mature, nonreplicating HFF cultures in maintenance media; five-day period of observation
From the text: This example illustrates the relatively low toxicity of a representative example of the chelators of this invention toward nonproliferating mammalian cells in vitro.

[6] = Set I: three IV doses of 0.032 mmoles/kg at 10 min prior to, 60 min after MCA occlusion and at reperfusion
[7] = Set II: three IV doses of 0.032 mmoles/kg at 60, 120 (reperfusion) and 180 min after MCA occlusion
[8] = Set III: single 0.032 mmoles/kg IV dose after 60 minutes of MCA occlusion
[9] = Set IV: single 0.032 mmoles/kg IV dose after 90 minutes of MCA occlusion

For `O=C(O)CN(CCN(CC(=O)O)CC(=O)O)CC(=O)O` [EDTA, ethylene diamine tetra acetic acid, reference compound], the “ability of Fe(III) complexed to the chelator to support Fenton reactions (hydroxyl radical formation)” value [1] was “supported the Fenton reaction yielding hydroxyl radicals”.

In the case of `O=C(NCCO[N+](=O)[O-])c1cccnc1` [nicorandil, reference compound], the “cardioprotection (volume of infarcted myocardium vs. controls)” value (anesthetized rabbit) is reported as “failed to provide cardioprotection”.

For `O=P(O)(O)CN1CCN(CP(=O)(O)O)CCN(CP(=O)(O)O)CC1` [N,N′,N″-tris(dihydroxyphosphorylmethyl)-1,4,7-triazacyclononane], the “cardioprotection with regard to cardiac performance parameters” value (unanesthetized rabbit; 0.032 mmole/kg intravenous) was “cardioprotective”, the “cardioprotection with regard to cardiac performance parameters” value (unanesthetized rabbit; 0.096 mmole/kg intravenous) was “cardioprotective” and the cardioprotection (unanesthetized rabbit; single IV dose of 0.032 mmole/kg administered up to 60-120 min prior to VOP-induced ischemia) was “significant cardioprotection”. For the same molecule, the “effect on cardiac performance parameters prior to VOP-induced ischemia” value (unanesthetized rabbit; unanesthetized rabbit) was “no affect”, the “difference in weight or rate of weight gain vs control group” value (Sprague Dawley rats; 0.05 millimoles per kg IV on 10 days within 14 days, injection period and two-week post-injection period) was “no statistically significant difference” and the “differences in tissues upon microscopic examination vs control group” value (Sprague Dawley rats; 0.05 millimoles per kg IV on 10 days, necropsy on 28th day) was “no differences”. For the same molecule, the “differences in weights of major organs vs control group” value (Sprague Dawley rats; 0.05 millimoles per kg IV on 10 days, sacrifice on 28th day) was “no differences observed”, the “cardioprotection (volume of infarcted myocardium vs. controls)” value (anesthetized rabbit) was “significant reduction” and the “volume of infarcted myocardium expressed as % of myocardial volume at risk” value (anesthetized rabbit; administration beginning after 15 minutes of LCAO) was 30.6%. For the same molecule, the “infarcted myocardium as a % of volume at risk” value (anesthetized rabbit; administration initiated 10 minutes prior to the onset of ischemia) was 28.1%, the “effect on pre-ischemia cardiac performance parameters” value (anesthetized rabbit; rabbit) was “without affecting” and the “ability of Fe(III) complexed to the chelator to support Fenton reactions (hydroxyl radical formation)” value [1] was “failed to show evidence of hydroxyl ion formation above background”. For the same molecule, the “effects on cardiac parameters following ischemia” value ([2]; 2.7 mM in the perfusing medium) was “no adverse effects”, the “effects on cardiac performance parameters prior to ischemia” value ([2]; 2.7 mM in the perfusing medium) was “no effects” and the “cardioprotection with regard to cardiac performance parameters following global ischemia” value ([2]; added to the perfusing medium, broad concentration range) was “significantly cardioprotective”. For the same molecule, the “concentration of peak efficacy (cardioprotection)” value ([2]; in the perfusing medium) was 0.01 mM, the “Infarct Volumes” value (rats; [6]) was 3.5 ± 3.7 percentage of whole hemispheric tissue and the “Motor Score: 1 Hour” value (rats; [6]) was 7.3 ± 1.3 points. The “Motor Score: 24 Hours” value (rats; [6]) was 5.9 ± 1.1 points, the “Motor Score: 48 Hours” value (rats; [6]) was 5.4 ± 1.9 points and the “Infarct Volumes” value (rats; [7]) was 6.2 ± 7.5 percentage of whole hemispheric tissue. For the same molecule, the “Motor Score: 1 Hour” value (rats; [7]) was 6.9 ± 1.1 points, the “Motor Score: 24 Hours” value (rats; [7]) was 3.6 ± 2.9 points and the “Motor Score: 48 Hours” value (rats; [7]) was 3.0 ± 3.0 points. The “Infarct Volumes” value (rats; [8]) was 2.6 ± 2.1 percentage of whole hemispheric tissue, the “Motor Score: 1 Hour” value (rats; [8]) was 6.8 ± 1.0 points and the “Motor Score: 24 Hours” value (rats; [8]) was 4.3 ± 1.0 points. The “Motor Score: 48 Hours” value (rats; [8]) was 2.8 ± 2.1 points, the “Infarct Volumes” value (rats; [9]) was 4.63 ± 9.08 percentage of whole hemispheric tissue and the “Motor Score: 1 Hour” value (rats; Set IV: single 0.032 mmoles/kg IV dose after 90 minutes of MCA occlusion, cell marked '2 hours:') was 7.43 ± 1.27 points. For the same molecule, the “Motor Score: 24 Hours” value (rats; [9]) was 4.9 ± 2.04 points, the “Motor Score: 48 Hours” value (rats; [9]) was 3.7 ± 1.98 points and the “blood pressure, heart rate and temperature values compared with vehicle-treated animals” value (rats; all treated groups) was “similar”. For the same molecule, the “reduction in infarct volumes compared to the corresponding control group” value (rats; all treated rats) was “robust”, the LD50 at 14 days [3] was greater than 3000 µmol/kg and the “mice surviving for over 14 days” value (mice) was “Over 50%”. The “dose which inhibits mammalian cell replication in vitro” value [4] was 0.009 mM/L and the “effect on the resting cells” value [5] was “no effect on the resting cells was observed”.
